# Experimental data taken from patent US6806230B1, “Pyrimidine derivatives and herbicides containing them” (Kumiai Chemical Industry Co., Ltd., priority 1999, dated 2004).
# System: barnyard grass (Eo)
# Assay: Test Example 1: herbicidal effects by flooded paddy field treatment;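 as to Herbicidal effect index, Eo: 0-5 growth inhibition grade; 5 = over 90%; 4 = 70-90%; 3 = 50-70%; 2 = 30-50%; 1 = 10-30%; 0 = under 10%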;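 as to Herbicidal effect index, Mo: 0-5 growth inhibition grade; 5 = over 90%; 4 = 70-90%; 3 = 50-70%; 2 = 30-50%; 1 = 10-30%; 0 = under 10%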
# Assay type: in vivo
# Design: herbicidal effects, Eo (barnyard grass):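 0-5 growth inhibition grade; 5 = over 90%; 4 = 70-90%; 3 = 50-70%; 2 = 30-50%; 1 = 10-30%; 0 = under 10%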
# Conditions: dose 100 g active ingredient per 10 ares, examined on the 21st day after treatment, standards of Table 44
# Summary of the method: (§1)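 Seeds were sown in puddled paddy soil in pots and flooded to 3 cm. The next day a water-diluted wettable powder was dripped onto the water surface at 100 g active ingredient per 10 ares. Plants grew in a greenhouse, and herbicidal effect was scored on a rating scale 21 days after treatment.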
row,Structure (SMILES),"herbicidal effects, Eo (barnyard grass)"
1,CCN(C(=O)Cc1ccc(F)cc1)C(c1cncnc1C(F)F)C(C)C (racemic) [Compound 1-169],5
2,CC(c1cncnc1C(C)(C)C)N(C)C(=O)Cc1ccc(Cl)cc1 (racemic) [1-190],5
3,CN(C(=O)Cc1ccc(Br)cc1)C(c1cncnc1C(F)(F)F)C1CCCC1 (racemic) [Compound 1-140],5
4,Cc1ccc(CC(=S)N(C)C(c2cncnc2C(F)(F)F)C(C)C)cc1 (racemic) [Compound 1-145],5

# Same assay, conditions: dose 100 gai/10a, examined on 21st day after treatment, index 0-5 per Table 44
row,Structure (SMILES),"Herbicidal effect index, Eo"
1,CC(C)C(c1cncnc1C(F)(F)F)N(C(=O)Cc1ccccc1)C(C)C (racemic) [Compound 1-103],5
2,CN(C(=O)Cc1ccc(F)cc1)C(c1ccccc1)c1cncnc1C(F)(F)F (racemic) [Compound 1-36],5
3,CCCN(C(=O)Cc1ccccc1)C(c1cncnc1C(F)(F)F)C(C)C (racemic) [Compound 1-63],5
4,CC(C)C(c1cncnc1C(F)(F)F)N(C)C(=O)Cc1cccc([N+](=O)[O-])c1 (racemic) [Compound 1-74],5
5,CC(Oc1ccc(Cl)cc1)C(=O)N(C)C(c1cncnc1C(F)(F)F)C(C)C (mixture of isomers) [Compound 1-116],5
6,Cc1ccc(CC(=O)N(C)C(c2cncnc2C(F)(F)F)C(C)C)cc1C (racemic) [Compound 1-72],5
7,CC(C)C(c1cncnc1C(F)(F)F)N(C)C(=O)Cc1ccccc1Cl (racemic) [Compound 1-20],5
8,CC(C)C(c1cncnc1C(F)(F)F)N(C)C(=O)OCc1ccccc1 (racemic) [Compound 1-118],5

# System: monochoria (Mo)
# Assay: as above
# Assay type: in vivo
# Design: herbicidal effects, Mo (monochoria):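 0-5 growth inhibition grade; 5 = over 90%; 4 = 70-90%; 3 = 50-70%; 2 = 30-50%; 1 = 10-30%; 0 = under 10%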
# Conditions: dose 100 g active ingredient per 10 ares, examined on the 21st day after treatment, standards of Table 44
# Summary of the method: as §1
row,Structure (SMILES),"herbicidal effects, Mo (monochoria)"
1,CCN(C(=O)Cc1ccc(F)cc1)C(c1cncnc1C(F)F)C(C)C (racemic) [Compound 1-169],5
2,CC(c1cncnc1C(C)(C)C)N(C)C(=O)Cc1ccc(Cl)cc1 (racemic) [1-190],5
3,CN(C(=O)Cc1ccc(Br)cc1)C(c1cncnc1C(F)(F)F)C1CCCC1 (racemic) [Compound 1-140],5
4,Cc1ccc(CC(=S)N(C)C(c2cncnc2C(F)(F)F)C(C)C)cc1 (racemic) [Compound 1-145],5

# Same assay, conditions: dose 100 gai/10a, examined on 21st day after treatment, index 0-5 per Table 44
row,Structure (SMILES),"Herbicidal effect index, Mo"
1,CC(C)C(c1cncnc1C(F)(F)F)N(C(=O)Cc1ccccc1)C(C)C (racemic) [Compound 1-103],5
2,CN(C(=O)Cc1ccc(F)cc1)C(c1ccccc1)c1cncnc1C(F)(F)F (racemic) [Compound 1-36],5
3,CCCN(C(=O)Cc1ccccc1)C(c1cncnc1C(F)(F)F)C(C)C (racemic) [Compound 1-63],5
4,CC(C)C(c1cncnc1C(F)(F)F)N(C)C(=O)Cc1cccc([N+](=O)[O-])c1 (racemic) [Compound 1-74],5
5,CC(Oc1ccc(Cl)cc1)C(=O)N(C)C(c1cncnc1C(F)(F)F)C(C)C (mixture of isomers) [Compound 1-116],5
6,Cc1ccc(CC(=O)N(C)C(c2cncnc2C(F)(F)F)C(C)C)cc1C (racemic) [Compound 1-72],5
7,CC(C)C(c1cncnc1C(F)(F)F)N(C)C(=O)Cc1ccccc1Cl (racemic) [Compound 1-20],5
8,CC(C)C(c1cncnc1C(F)(F)F)N(C)C(=O)OCc1ccccc1 (racemic) [Compound 1-118],5

# System: barnyard grass (Ec)
# Assay: Test Example 2: herbicidal effects by upland soil treatment;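 as to herbicidal effects, Se (green foxtail): 0-5 growth inhibition grade; 5 = over 90%; 4 = 70-90%; 3 = 50-70%; 2 = 30-50%; 1 = 10-30%; 0 = under 10%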
# Assay type: in vivo
# Design: scale not given here
# Conditions: dose 100 g active ingredient per 10 ares, examined on the 21st day after treatment, standards of Table 44
# Summary of the method: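 Pre-emergence test: barnyard grass and green foxtail sown in upland soil, then soil surface sprayed with wettable-powder formulation at 100 g active ingredient per 10 ares (100 l per 10 ares). Grown in greenhouse; herbicidal effect scored on a rating scale 21 days after treatment.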
row,Structure (SMILES),"herbicidal effects, Ec (barnyard grass)"
1,CC(C)C(c1cncnc1C(F)(F)F)N(C(=O)Cc1ccccc1)C(C)C (racemic) [Compound 1-103],5
2,CN(C(=O)Cc1ccc(F)cc1)C(c1ccccc1)c1cncnc1C(F)(F)F (racemic) [Compound 1-36],5
3,CCCN(C(=O)Cc1ccccc1)C(c1cncnc1C(F)(F)F)C(C)C (racemic) [Compound 1-63],5
4,CC(C)C(c1cncnc1C(F)(F)F)N(C)C(=O)Cc1cccc([N+](=O)[O-])c1 (racemic) [Compound 1-74],5
5,CC(Oc1ccc(Cl)cc1)C(=O)N(C)C(c1cncnc1C(F)(F)F)C(C)C (mixture of isomers) [Compound 1-116],5
6,Cc1ccc(CC(=O)N(C)C(c2cncnc2C(F)(F)F)C(C)C)cc1C (racemic) [Compound 1-72],5
7,CCN(C(=O)Cc1ccc(F)cc1)C(c1cncnc1C(F)F)C(C)C (racemic) [Compound 1-169],5
8,CC(c1cncnc1C(C)(C)C)N(C)C(=O)Cc1ccc(Cl)cc1 (racemic) [1-190],4
9,CC(C)C(c1cncnc1C(F)(F)F)N(C)C(=O)Cc1ccccc1Cl (racemic) [Compound 1-20],5
10,CC(C)C(c1cncnc1C(F)(F)F)N(C)C(=O)OCc1ccccc1 (racemic) [Compound 1-118],5
11,CN(C(=O)Cc1ccc(Br)cc1)C(c1cncnc1C(F)(F)F)C1CCCC1 (racemic) [Compound 1-140],5
12,Cc1ccc(CC(=S)N(C)C(c2cncnc2C(F)(F)F)C(C)C)cc1 (racemic) [Compound 1-145],5

# System: green foxtail (Se)
# Assay: as above
# Assay type: in vivo
# Conditions: dose 100 g active ingredient per 10 ares, examined on the 21st day after treatment, standards of Table 44
# Experimental: In a 80 cm^2 plastic pot, upland soil was filled, and seeds of barnyard grass (Ec) and green foxtail (Se) were sown and covered with soil. A wettable powder prepared in accordance with Formulation Example 1 was diluted with water and uniformly applied to the soil surface by means of a small size spray at a rate of 100 l per 10 ares, so that the dose of the active ingredient would be 100 g per 10 ares. Thereafter, cultivation was carried out in a green house, and on the 21st day after the treatment, the herbicidal effects were examined in accordance with the standards as identified in Table 44.
row,Structure (SMILES),"herbicidal effects, Se (green foxtail)"
1,CC(C)C(c1cncnc1C(F)(F)F)N(C(=O)Cc1ccccc1)C(C)C (racemic) [Compound 1-103],5
2,CN(C(=O)Cc1ccc(F)cc1)C(c1ccccc1)c1cncnc1C(F)(F)F (racemic) [Compound 1-36],5
3,CCCN(C(=O)Cc1ccccc1)C(c1cncnc1C(F)(F)F)C(C)C (racemic) [Compound 1-63],5
4,CC(C)C(c1cncnc1C(F)(F)F)N(C)C(=O)Cc1cccc([N+](=O)[O-])c1 (racemic) [Compound 1-74],5
5,CC(Oc1ccc(Cl)cc1)C(=O)N(C)C(c1cncnc1C(F)(F)F)C(C)C (mixture of isomers) [Compound 1-116],4
6,Cc1ccc(CC(=O)N(C)C(c2cncnc2C(F)(F)F)C(C)C)cc1C (racemic) [Compound 1-72],4
7,CCN(C(=O)Cc1ccc(F)cc1)C(c1cncnc1C(F)F)C(C)C (racemic) [Compound 1-169],5
8,CC(c1cncnc1C(C)(C)C)N(C)C(=O)Cc1ccc(Cl)cc1 (racemic) [1-190],4
9,CC(C)C(c1cncnc1C(F)(F)F)N(C)C(=O)Cc1ccccc1Cl (racemic) [Compound 1-20],5
10,CC(C)C(c1cncnc1C(F)(F)F)N(C)C(=O)OCc1ccccc1 (racemic) [Compound 1-118],5
11,CN(C(=O)Cc1ccc(Br)cc1)C(c1cncnc1C(F)(F)F)C1CCCC1 (racemic) [Compound 1-140],5
12,Cc1ccc(CC(=S)N(C)C(c2cncnc2C(F)(F)F)C(C)C)cc1 (racemic) [Compound 1-145],5

# System: barnyard grass (Eo)
# Assay: Test Example 4: selectivity for a crop plant by flooded paddy field treatment
# Assay type: in vivo
# Design: scale not given here
# Conditions: barnyard grass, dose 25 gai/10a, 21st day after treatment, index per Table 44
# Summary of the method: (§2)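 Paddy soil in pots was puddled, weed seeds were sown, second-leaf-stage rice was transplanted, and the pots were flooded to 3 cm. The next day a water-diluted wettable powder was dropped onto the water surface at 25 g active ingredient per 10 ares. Herbicidal effect was scored on a rating scale 21 days after treatment in a greenhouse.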
row,Structure (SMILES),Eo (herbicidal effect index)
1,CC(C)C(c1cncnc1C(F)(F)F)N(C(=O)Cc1ccccc1)C(C)C (racemic) [Compound 1-103],5
2,CC(Oc1ccc(Cl)cc1)C(=O)N(C)C(c1cncnc1C(F)(F)F)C(C)C (mixture of isomers) [Compound 1-116],5
3,CCN(C(=O)Cc1ccc(F)cc1)C(c1cncnc1C(F)F)C(C)C (racemic) [Compound 1-169],5
4,CC(c1cncnc1C(C)(C)C)N(C)C(=O)Cc1ccc(Cl)cc1 (racemic) [1-190],5
5,CC(C)C(c1cncnc1C(F)(F)F)N(C)C(=O)OCc1ccccc1 (racemic) [Compound 1-118],5
6,CN(C(=O)Cc1ccc(Br)cc1)C(c1cncnc1C(F)(F)F)C1CCCC1 (racemic) [Compound 1-140],5
7,Cc1ccc(CC(=S)N(C)C(c2cncnc2C(F)(F)F)C(C)C)cc1 (racemic) [Compound 1-145],5

# Same assay, conditions: dose 25 g active ingredient per 10 ares, examined on the 21st day after treatment
row,Structure (SMILES),"Eo (herbicidal effects, index)"
1,CN(C(=O)Cc1ccc(F)cc1)C(c1ccccc1)c1cncnc1C(F)(F)F (racemic) [Compound 1-36],5
2,CCCN(C(=O)Cc1ccccc1)C(c1cncnc1C(F)(F)F)C(C)C (racemic) [Compound 1-63],5
3,CC(C)C(c1cncnc1C(F)(F)F)N(C)C(=O)Cc1cccc([N+](=O)[O-])c1 (racemic) [Compound 1-74],5
4,Cc1ccc(CC(=O)N(C)C(c2cncnc2C(F)(F)F)C(C)C)cc1C (racemic) [Compound 1-72],5
5,CC(C)C(c1cncnc1C(F)(F)F)N(C)C(=O)Cc1ccccc1Cl (racemic) [Compound 1-20],5

# System: monochoria (Mo)
# Assay: as above
# Assay type: in vivo
# Design: scale not given here
# Conditions: dose 25 g active ingredient per 10 ares, examined on the 21st day after treatment
# Summary of the method: as §2
row,Structure (SMILES),"Mo (herbicidal effects, index)"
1,CN(C(=O)Cc1ccc(F)cc1)C(c1ccccc1)c1cncnc1C(F)(F)F (racemic) [Compound 1-36],5
2,CCCN(C(=O)Cc1ccccc1)C(c1cncnc1C(F)(F)F)C(C)C (racemic) [Compound 1-63],5
3,CC(C)C(c1cncnc1C(F)(F)F)N(C)C(=O)Cc1cccc([N+](=O)[O-])c1 (racemic) [Compound 1-74],5
4,Cc1ccc(CC(=O)N(C)C(c2cncnc2C(F)(F)F)C(C)C)cc1C (racemic) [Compound 1-72],5
5,CC(C)C(c1cncnc1C(F)(F)F)N(C)C(=O)Cc1ccccc1Cl (racemic) [Compound 1-20],5

# Same assay, conditions: monochoria, dose 25 gai/10a, 21st day after treatment, index per Table 44
row,Structure (SMILES),Mo (herbicidal effect index)
1,CC(C)C(c1cncnc1C(F)(F)F)N(C(=O)Cc1ccccc1)C(C)C (racemic) [Compound 1-103],5
2,CC(Oc1ccc(Cl)cc1)C(=O)N(C)C(c1cncnc1C(F)(F)F)C(C)C (mixture of isomers) [Compound 1-116],5
3,CCN(C(=O)Cc1ccc(F)cc1)C(c1cncnc1C(F)F)C(C)C (racemic) [Compound 1-169],5
4,CC(c1cncnc1C(C)(C)C)N(C)C(=O)Cc1ccc(Cl)cc1 (racemic) [1-190],5
5,CC(C)C(c1cncnc1C(F)(F)F)N(C)C(=O)OCc1ccccc1 (racemic) [Compound 1-118],3
6,CN(C(=O)Cc1ccc(Br)cc1)C(c1cncnc1C(F)(F)F)C1CCCC1 (racemic) [Compound 1-140],5
7,Cc1ccc(CC(=S)N(C)C(c2cncnc2C(F)(F)F)C(C)C)cc1 (racemic) [Compound 1-145],5

# System: rice (Or)
# Assay: as above
# Assay type: in vivo
# Design: scale not given here
# Conditions: rice transplanted at second leaf stage, dose 25 g active ingredient per 10 ares, examined on the 21st day after treatment
# Summary of the method: as §2
row,"Or (effect on crop plant rice, index)",Structure (SMILES)
1,1,CN(C(=O)Cc1ccc(F)cc1)C(c1ccccc1)c1cncnc1C(F)(F)F (racemic) [Compound 1-36]
2,1,CCCN(C(=O)Cc1ccccc1)C(c1cncnc1C(F)(F)F)C(C)C (racemic) [Compound 1-63]
3,0,CC(C)C(c1cncnc1C(F)(F)F)N(C)C(=O)Cc1cccc([N+](=O)[O-])c1 (racemic) [Compound 1-74]
4,0,Cc1ccc(CC(=O)N(C)C(c2cncnc2C(F)(F)F)C(C)C)cc1C (racemic) [Compound 1-72]
5,1,CC(C)C(c1cncnc1C(F)(F)F)N(C)C(=O)Cc1ccccc1Cl (racemic) [Compound 1-20]

# Same assay, conditions: rice transplanted at second leaf stage, dose 25 gai/10a, 21st day after treatment, index per Table 44
row,Structure (SMILES),Or (herbicidal effect index on crop)
1,CC(C)C(c1cncnc1C(F)(F)F)N(C(=O)Cc1ccccc1)C(C)C (racemic) [Compound 1-103],1
2,CC(Oc1ccc(Cl)cc1)C(=O)N(C)C(c1cncnc1C(F)(F)F)C(C)C (mixture of isomers) [Compound 1-116],0
3,CCN(C(=O)Cc1ccc(F)cc1)C(c1cncnc1C(F)F)C(C)C (racemic) [Compound 1-169],1
4,CC(c1cncnc1C(C)(C)C)N(C)C(=O)Cc1ccc(Cl)cc1 (racemic) [1-190],0
5,CC(C)C(c1cncnc1C(F)(F)F)N(C)C(=O)OCc1ccccc1 (racemic) [Compound 1-118],0
6,CN(C(=O)Cc1ccc(Br)cc1)C(c1cncnc1C(F)(F)F)C1CCCC1 (racemic) [Compound 1-140],0
7,Cc1ccc(CC(=S)N(C)C(c2cncnc2C(F)(F)F)C(C)C)cc1 (racemic) [Compound 1-145],1
